Test results taken from PubChem BioAssay AID1918938 (Molecular Pharmacology Branch, DTP, NCI, 2023).

Test system: 556581-035-R-J1-PDC complex spheroid viability
Test: Anticancer human tumor 556581-035-R-J1-PDC patient-derived ovarian carcinoma cell line growth inhibition
Details: for IC50: curve of first compound; for viability, T/C: stronger effect = lower value
How it was run: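 Complex spheroids of tumor cells with HUVEC and human MSCs, exposed to iadademstat combined with other agents. Each agent tested in half-log steps from near clinical Cmax (else 10 microM top), DMSO ≤0.25%.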

[1] = second compound 0.1 µM, first compound 0.0316 µM
[2] = second compound 0.1 µM, first compound 0.1 µM
[3] = second compound 0.1 µM, first compound 0.316 µM
[4] = second compound 0.1 µM, first compound 1 µM
[5] = second compound 0.1 µM, first compound 3.16 µM
[6] = second compound 0.1 µM, first compound 10 µM
[7] = second compound 0.316 µM, first compound 0.0316 µM
[8] = second compound 0.316 µM, first compound 0.1 µM
[9] = second compound 0.316 µM, first compound 0.316 µM
[10] = second compound 0.316 µM, first compound 1 µM
[11] = second compound 0.316 µM, first compound 3.16 µM
[12] = second compound 0.316 µM, first compound 10 µM
[13] = second compound 1 µM, first compound 0.0316 µM
[14] = second compound 1 µM, first compound 0.1 µM
[15] = second compound 1 µM, first compound 0.316 µM
[16] = second compound 1 µM, first compound 1 µM
[17] = second compound 1 µM, first compound 3.16 µM
[18] = second compound 1 µM, first compound 10 µM
[19] = second compound 3.16 µM, first compound 0.0316 µM
[20] = second compound 3.16 µM, first compound 0.1 µM
[21] = second compound 3.16 µM, first compound 0.316 µM
[22] = second compound 3.16 µM, first compound 1 µM
[23] = second compound 3.16 µM, first compound 3.16 µM
[24] = second compound 3.16 µM, first compound 10 µM
[25] = second compound 10 µM, first compound 0.0316 µM
[26] = second compound 10 µM, first compound 0.1 µM
[27] = second compound 10 µM, first compound 0.316 µM
[28] = second compound 10 µM, first compound 1 µM
[29] = second compound 10 µM, first compound 3.16 µM
[30] = second compound 10 µM, first compound 10 µM
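Note: spheroids exposed to agents for seven days.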
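Throughout, for viability, T/C: 100% = DMSO vehicle control wells.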

**Q.** Which results are given for `CC1(C)CCC(CN2CCN(c3ccc(C(=O)NS(=O)(=O)c4ccc(NCC5CCOCC5)c([N+](=O)[O-])c4)c(Oc4cnc5[nH]ccc5c4)c3)CC2)=C(c2ccc(Cl)cc2)C1` + NC1CCC(NC2CC2c2ccccc2)CC1?
**A.** IC50 (second compound 0.1 µM): 4.38 µM; IC50 (second compound 0.316 µM): 3.5 µM; IC50 (second compound 1 µM): 4.18 µM; IC50 (second compound 3.16 µM): 3.83 µM; IC50 (second compound 10 µM): 2.92 µM; viability, T/C [1]: 80.7%; viability, T/C [2]: 86.4%; viability, T/C [3]: 80%; viability, T/C [4]: 82.8%; viability, T/C [5]: 65.8%; viability, T/C [6]: 9.71%; viability, T/C [7]: 79.9%; viability, T/C [8]: 93.8%; viability, T/C [9]: 89.5%; viability, T/C [10]: 84.9%; viability, T/C [11]: 54.1%; viability, T/C [12]: 7.68%; viability, T/C [13]: 74.2%; viability, T/C [14]: 90.7%; viability, T/C [15]: 88%; viability, T/C [16]: 70.8%; viability, T/C [17]: 64.5%; viability, T/C [18]: 10.5%; viability, T/C [19]: 79.2%; viability, T/C [20]: 77.1%; viability, T/C [21]: 77.5%; viability, T/C [22]: 70.6%; viability, T/C [23]: 58.6%; viability, T/C [24]: 11.8%; viability, T/C [25]: 75.4%; viability, T/C [26]: 77.3%; viability, T/C [27]: 73.5%; viability, T/C [28]: 59.9%; viability, T/C [29]: 52.4%; viability, T/C [30]: 7.8%

**Q.** What does the source list for `CC1COCCN1c1cc(C2(S(C)(=N)=O)CC2)nc(-c2ccnc3[nH]ccc23)n1` (stereo not given) + NC1CCC(NC2CC2c2ccccc2)CC1?
**A.** IC50 (second compound 0.1 µM): > 10 µM; IC50 (second compound 0.316 µM): > 10 µM; IC50 (second compound 1 µM): > 10 µM; IC50 (second compound 3.16 µM): > 10 µM; IC50 (second compound 10 µM): 6.32 µM; viability, T/C [1]: 96.9%; viability, T/C [2]: 90.1%; viability, T/C [3]: 81.8%; viability, T/C [4]: 77.5%; viability, T/C [5]: 71.2%; viability, T/C [6]: 60.3%; viability, T/C [7]: 87.8%; viability, T/C [8]: 90.2%; viability, T/C [9]: 78.7%; viability, T/C [10]: 70%; viability, T/C [11]: 55.6%; viability, T/C [12]: 53.9%; viability, T/C [13]: 80%; viability, T/C [14]: 88.5%; viability, T/C [15]: 73.4%; viability, T/C [16]: 65.3%; viability, T/C [17]: 58.1%; viability, T/C [18]: 53.8%; viability, T/C [19]: 93.5%; viability, T/C [20]: 77.8%; viability, T/C [21]: 79.4%; viability, T/C [22]: 67.2%; viability, T/C [23]: 55.8%; viability, T/C [24]: 60.5%; viability, T/C [25]: 67.5%; viability, T/C [26]: 73.5%; viability, T/C [27]: 69%; viability, T/C [28]: 66.1%; viability, T/C [29]: 48%; viability, T/C [30]: 49.3%
